Assay results from patent US10300107B2, “Compositions and methods for CaMKII inhibitors and uses thereof” (THE REGENTS OF THE UNIVERSITY OF COLORADO, priority 2007, dated 2019).
Several values for one entry are separate records, joined by “and”; a condition that tells them apart may be missing. Equal entries are not always repeated. Where no end group is shown, it is not given here.

What was measured:
Assay type in all cases: biochemical
CaMKIV = CaMKIV (Homo sapiens, UniProt Q16566); test: Kinase panel: CaMKIV; details: 5 μM
Protocol: (§2) Kinase panels. A panel of different kinases was tested utilizing a kinase profiling service (Upstate Biotechnology).

protein kinase A (PKA) = protein kinase A (PKA) (Homo sapiens, UniProt P17612); test: Kinase panel for CN19o: PKA; details: 5 μM
Protocol: (§1) Additionally, CN19o was tested for effects on a panel of other kinases (see for example FIG. 25B). This panel included other CaM kinase family members (CaMKIV, DAPK1, AMPK) and other basophilic multifunctional kinases (protein kinase A (PKA) and protein kinase C (PKC)). […] Thus, CN19o (SEQ ID NO: 24) inhibits CaMKII both with remarkable potency and high selectivity.

CaMKII = tested on: CaMKII
Protocol: CaMKII activity assays. Standard CaMKII assays were done for 1 min at 30° C. previously described, with 20 nM CaMKII (subunit, not holoenzyme concentration), 50 mM PIPES pH 7.2, 0.1 mg/ml BSA, 10 mM MgCl2, 100 μM [γ-^32P] ATP (˜1 Ci/mmol), 1 mM CaCl2, 1-2 μM CaM, and 30-60 μM AC2 peptide (or syntide2). The reactions were spotted onto Whatman P81 phosphocellulose paper rectangles (˜2×2.5 cm). To remove free radioactivity, the paper rectangles were rinsed and washed for 30 min under agitation in 0.5% phosphoric acid or water. […] Radioactivity of the bound peptides was quantified in a Beckman 6000TA scintillation counter by the Cherenkov method. Any changes of the standard protocol were done as indicated. For assays of the GFP-CaMKIIα mutants, kinase amounts were normalized by GFP fluorescence in the extract, and total protein was adjusted with Cos-7 extracts.

DAPK1 = DAPK1 (Homo sapiens, UniProt P53355); test: Kinase panel for CN19o: DAPK1; details: 5 μM
Sequence of DAPK1 (P53355 whole entry, species assumed): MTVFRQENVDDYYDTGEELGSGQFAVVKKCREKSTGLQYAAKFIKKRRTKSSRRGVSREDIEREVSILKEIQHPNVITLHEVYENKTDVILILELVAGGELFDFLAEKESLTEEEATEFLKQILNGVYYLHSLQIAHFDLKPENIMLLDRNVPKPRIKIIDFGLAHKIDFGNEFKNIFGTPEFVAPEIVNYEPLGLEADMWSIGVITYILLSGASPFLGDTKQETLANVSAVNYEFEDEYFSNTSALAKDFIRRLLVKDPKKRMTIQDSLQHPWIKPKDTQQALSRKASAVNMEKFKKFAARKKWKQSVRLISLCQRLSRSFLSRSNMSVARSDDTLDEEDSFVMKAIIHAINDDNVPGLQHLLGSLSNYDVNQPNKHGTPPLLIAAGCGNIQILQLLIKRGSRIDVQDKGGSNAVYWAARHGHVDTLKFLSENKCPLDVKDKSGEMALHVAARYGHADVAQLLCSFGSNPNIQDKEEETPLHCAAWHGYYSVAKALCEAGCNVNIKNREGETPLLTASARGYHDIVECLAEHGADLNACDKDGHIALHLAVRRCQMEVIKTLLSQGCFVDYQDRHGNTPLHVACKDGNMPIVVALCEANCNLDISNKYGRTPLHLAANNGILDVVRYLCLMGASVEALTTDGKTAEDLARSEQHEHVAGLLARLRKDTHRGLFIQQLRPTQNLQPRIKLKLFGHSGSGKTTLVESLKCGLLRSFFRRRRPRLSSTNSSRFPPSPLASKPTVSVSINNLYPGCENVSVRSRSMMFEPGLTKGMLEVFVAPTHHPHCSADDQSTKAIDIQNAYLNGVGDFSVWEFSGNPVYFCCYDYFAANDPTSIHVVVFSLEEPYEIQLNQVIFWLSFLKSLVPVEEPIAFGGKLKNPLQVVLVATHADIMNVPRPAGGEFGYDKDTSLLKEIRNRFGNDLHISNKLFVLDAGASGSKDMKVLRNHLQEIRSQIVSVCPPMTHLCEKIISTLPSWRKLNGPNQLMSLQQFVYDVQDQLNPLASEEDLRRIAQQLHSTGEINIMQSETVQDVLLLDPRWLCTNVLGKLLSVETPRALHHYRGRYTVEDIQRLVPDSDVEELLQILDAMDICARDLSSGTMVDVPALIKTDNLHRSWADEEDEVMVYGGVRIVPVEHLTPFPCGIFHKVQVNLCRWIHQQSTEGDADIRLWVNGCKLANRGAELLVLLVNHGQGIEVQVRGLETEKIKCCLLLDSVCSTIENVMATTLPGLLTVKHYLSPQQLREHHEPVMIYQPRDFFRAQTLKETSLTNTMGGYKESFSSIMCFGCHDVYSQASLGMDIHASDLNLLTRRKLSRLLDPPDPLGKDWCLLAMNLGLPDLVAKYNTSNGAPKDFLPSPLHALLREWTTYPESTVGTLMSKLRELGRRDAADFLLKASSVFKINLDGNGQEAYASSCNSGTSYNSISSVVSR
Protocol: as §1

AMPK = test: Kinase panel for CN19o: AMPK; details: 5 μM
Protocol: as §1

PKC = PKC (Homo sapiens, UniProt P17252); test: Kinase panel: PKC; details: 5 μM
Protocol: as §2

CaMKI = CaMKI (Homo sapiens, UniProt Q14012); test: CaMKI activity / inhibition
Sequence of CaMKI (Q14012 whole entry, species assumed): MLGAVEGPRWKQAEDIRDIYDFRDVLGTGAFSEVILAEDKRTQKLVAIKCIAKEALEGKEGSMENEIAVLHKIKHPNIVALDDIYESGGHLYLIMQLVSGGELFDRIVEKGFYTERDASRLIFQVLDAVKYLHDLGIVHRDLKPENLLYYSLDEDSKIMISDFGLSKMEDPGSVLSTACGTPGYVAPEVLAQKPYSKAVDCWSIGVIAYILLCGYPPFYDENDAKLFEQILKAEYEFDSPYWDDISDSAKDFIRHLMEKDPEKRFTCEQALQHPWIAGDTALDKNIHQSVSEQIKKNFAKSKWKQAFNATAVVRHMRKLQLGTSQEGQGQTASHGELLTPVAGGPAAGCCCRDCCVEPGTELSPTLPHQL
Text: For curve fit, the Hill coefficient was set as 1.

- effect on kinase activity of CaMKIV (CaMKIV): did not significantly affect
- effect on kinase activity of PKA (protein kinase A (PKA)): did not significantly affect
- IC50 (CaMKII; CaMKII concentration lowered to 0.1 nM, read-out: IC50 of CaMKII inhibition): ~0.75 nM and 0.75 nM and < 1 nM
- effect on kinase activity of DAPK1 (DAPK1): did not significantly affect
- effect on kinase activity of AMPK (AMPK): did not significantly affect
- effect on kinase activity of PKC (PKC): did not significantly affect
- IC50 (CaMKI): ~38000 nM
- effect on kinase activity of CaMKI (CaMKI; 5 μM): did not significantly affect
- selectivity for CaMKII vs CaMKI (CaMKI; ratio of IC50 values): about 50,000 fold
Sequence: KRAPKLGQIGRQKAVDIED [CN19o]
- effect on CaMKII activity (CaMKII; 5 nM): blocked CaMKII activity nearly completely
- effect of further mutation on potency of CaMKII inhibition (CaMKII; CN19a2v background): increased potency even further
